Measured values taken from patent publication US20060263761A1, “Methods and compositions for beryllium-induced Disease” (priority 2005, published 2006).

How the values were obtained:
Format in all cases: cell-based, human
[1] = tested on: PBMCs (IFN-γ-producing cells); experiment: IFN-γ ELISPOT assay on PBMCs after BeSO4 exposure; settings: for ratio of IFN-γ- to IL-2-secreting cells (median): ELISPOT; for subjects demonstrating beryllium-induced IFN-γ production: threshold >1.4 SFU
Experimental: (§1) In one exemplary method, ELISPOT assays were performed using plates (ImmunoSpot M200, BD Biosciences Pharmingen) that were coated with, IFN-γ or IL-2 capture mAb (BD Biosciences Pharmingen) overnight and blocked with Blocking Solution containing RPMI 1640 supplemented with 10% heat-inactivated fetal bovine serum (Tissue Culture Biologicals, Tulare Calif.), 20 mM HEPES, 1 mM sodium pyruvate, 100 U/ml penicillin, 100 μg/ml streptomycin, and 2 mM L-glutamine (e.g. all from Life Technologies, Gaithersburg Md.) for 2 h at room temperature. Freshly isolated PBMCs (5×10^5 cells/well) were added to wells and incubated overnight at 37° C. in a humidified 5% CO2 atmosphere with medium, PHA, or BeSO4. ELISpot assays were performed in triplicate. The wells were washed, and IFN-γ or IL-2 detection mAbs (BD Biosciences Pharmingen) were added, and the proteins were visualized by successive additions of avidin-horseradish peroxidase and 3-amino-9-ethylcarbazole (AEC) substrate reagent (BD Biosciences Pharmingen). The ELISpot plates were analyzed using a for example a CTL Immunospot Analyzer (Cellular Technology Ltd., Cleveland, Ohio), and results are reported as mean±SD spot-forming units (SFU) per well minus background SFU.
In one exemplary method ELISPOT assays were performed on fresh PBMCs from 12 healthy control, 18 BeS and 33 CBD subjects (Table 1).

[2] = tested on: PBMCs (IL-2-producing cells); experiment: IL-2 ELISPOT assay on PBMCs after BeSO4 exposure
Experimental: as §1

[3] = tested on: PBMCs; experiment: Lymphocyte proliferation assay ([3H]thymidine, BeLPT)
Experimental: In one exemplary method, proliferation assays were performed using PBMCs (2.5×10^5 cells/well) cultured for 4-6 days in complete culture media containing RPMI 1640 supplemented with 10% heat-inactivated human serum (Gemini Bio-Products, Woodland Calif.) with the following stimulants: medium, 2.5 μg/ml phytohemagglutinin (PHA), 1×10^−4 M or 1×10^−5 M BeSO4 (example of one beryllium composition). The wells were pulsed with 1 μCi of [^3H] thymidine for 18 hours, and incorporation of radioactivity was determined by β-emission spectroscopy. Proliferation assays were performed in quadruplicate. The data are presented as stimulation index (SI) with a positive response defined as […]. Any other means known in the art for assessing proliferation of cells may be used.
In another exemplary method, PBMCs from healthy control, BeS, and CBD subjects described above were examined for beryllium-induced proliferation at the same time as the ELISPOT assays were performed. […] The median SI for PBMCs from BeS and CBD patients exposed to 1×10^−4 M BeSO4 was 2.8 (range, 0.5-42) and 3.5 (0.6-85) (P=0.49), respectively. The findings were similar when expressed as ΔCPM, with the median ΔCPM from BeS and CBD patients exposed to 1×10^−4 M BeSO4 being 917 (range, 0-36,355) and 1514 (range, 0-20,884), respectively (P=0.85). […] In one exemplary method, ELISPOT analysis for IFN-γ was able to detect the presence of beryllium-specific T cells in blood. […] In 6 BeS and 7 CBD subjects, the ELISPOT assay detected IFN-γ- and/or IL-2-secreting cells in response to beryllium exposure in culture while no beryllium-induced proliferation was detected at the time of the study. […] For example, in CBD patients, the median number of beryllium-induced, IFN-γ-expressing cells was 83 SFU (range, 0-645) in subjects with and 48 SFU (range, 10-112; P=0.3) in subjects without beryllium-induced proliferation. Beryllium-induced proliferation occurred in the absence of detectable cytokine secretion in only 2 CBD patients, while both ELISPOT analysis and proliferation assay were negative in 2 BeS and 3 CBD patients.

[4] = tested on: CD4+ T cells; experiment: Intracellular cytokine staining (IFN-γ, IL-2) by flow cytometry
Experimental: . Cells were stained with mAbs directed against CD4 and CD8 (BD Biosciences Pharmingen) followed by fixation, permeabilization, and staining with mAbs directed against IFN-γ and/or IL-2 (Caltag, Burlingame, Calif.). The lymphocyte population was identified using forward and 90° light scatter patterns, and fluorescence intensity was analyzed using a FACScaliber cytometer (Becton Dickinson) as previously described but any means known in the art may be used to identify this population.
For example, the ratio of IFN-γ- to IL-2-secreting cells determined by ELISPOT analysis was 2.7 (median; range, 0.5-167) for CBD patients (n=33) and 1.8 (median; range, 0.5-6.9) for BeS patients (n=18) (P=0.07). To further address this issue, intracellular cytokine staining was performed on blood from 11 of the 33 CBD subjects who had large enough populations (>0.04%) of circulating beryllium-specific CD4+ T cells to allow for evaluation of Th1-type cytokine expression after beryllium exposure in culture. […] IFN-γ and IL-2 expression in CD4− T cells was equal to background levels. In the peripheral blood, the beryllium-specific CD4+ T cells appeared equally divided into two groups: T cells capable of expressing both IFN-γ and IL 2 and another expressing only IFN-γ (FIG. 4B). Similar to T cells in the lung (12), almost no cells were detected that produced IL-2 in the absence of IFN-γ expression. In these eleven CBD patients, the median percentage of IFN-γ-expressing CD4+ T cells was 0.29% (range, 0.1%-1.1%) compared to 0.07% for IL-2 (0%-0.49%; P=0.007) (FIG. 4C).

[5] = representative CBD subject, FIG. 4A, following beryllium exposure

Structure (SMILES): O=S(=O)([O-])[O-].[Be+2] [BeSO4, Beryllium sulfate]
- ratio of IFN-γ- to IL-2-secreting cells (median) ([1]; BeS patients (n=18)): 1.8
- median number of IFN-γ producing cells in blood ([1]; BeS subjects (n=18), 1×10^−4 M BeSO4): 6.3 SFU
- subjects demonstrating beryllium-induced IFN-γ production ([1]; BeS subjects, 13 of 18, 1×10^−4 M BeSO4): 72%
- patients with a positive ELISPOT assay ([1]; CBD and BeS subjects, 41 of 51): 80%
- median number of IFN-γ producing cells in blood ([1]; CBD patients (n=33), 1×10^−4 M BeSO4): 52 SFU
- ratio of IFN-γ- to IL-2-secreting cells (median) ([1]; CBD patients (n=33)): 2.7
- median number of beryllium-induced, IFN-γ-expressing cells ([1]; CBD patients with beryllium-induced proliferation): 83 SFU
- median number of beryllium-induced, IFN-γ-expressing cells ([1]; CBD patients without beryllium-induced proliferation): 48 SFU
- subjects demonstrating beryllium-induced IFN-γ production ([1]; CBD subjects, 28 of 33, 1×10^−4 M BeSO4): 85%
- IFN-γ SFU (mean±SD) of the one healthy control with a positive response ([1]; healthy control subject, 1×10^−4 M BeSO4): 2.0±2.1 SFU per 5×10^5 cells
- median number of IFN-γ producing cells in blood ([1]; normal control subjects (n=12), 1×10^−4 M BeSO4): 0.4 SFU
- median number of IFN-γ producing cells in blood ([1]; treated CBD subjects, 1×10^−4 M BeSO4): 117
- median number of IFN-γ producing cells in blood ([1]; untreated CBD subjects, 1×10^−4 M BeSO4): 34
- median number of IL-2-producing cells ([2]; BeS subjects): 2.8 SFU
- median number of IL-2-producing cells ([2]; CBD patients): 16 SFU/5×10^5 cells
- median number of IL-2-producing cells ([2]; normal control subjects): 0 SFU
- patients with a positive proliferative response ([3]; BeS patients, 10 of 18, 1×10^−4 M BeSO4): 55%
- median SI (stimulation index) ([3]; BeS patients, 1×10^−4 M BeSO4): 2.8
- median ΔCPM ([3]; BeS patients, 1×10^−4 M BeSO4): 917
- subjects with a positive beryllium-induced proliferative response (BeLPT) ([3]; CBD and BeS subjects, 33 of 51): 65%
- patients with a positive proliferative response ([3]; CBD patients, 23 of 33, 1×10^−4 M BeSO4): 70%
- median SI (stimulation index) ([3]; CBD patients, 1×10^−4 M BeSO4): 3.5
- median ΔCPM ([3]; CBD patients, 1×10^−4 M BeSO4): 1514
- median SI (stimulation index) ([3]; control subjects, 1×10^−4 M BeSO4): 0.5
- median SI (stimulation index) ([3]; control subjects, 1×10^−5 M BeSO4): 0.7
- median percentage of IFN-γ-expressing CD4+ T cells ([4]; eleven CBD patients): 0.29%
- median percentage of IL-2-expressing CD4+ T cells ([4]; eleven CBD patients): 0.07%
- CD4+ T cells expressing IFN-γ [4, 5]: 1.1%
- CD4+ T cells expressing IL-2 [4, 5]: 0.5%
